According to publication PMC9030691, “Toxicokinetics of β-Amanitin in Mice and In Vitro Drug–Drug Interaction Potential” (Pharmaceutics, 2022):
Like-named read-outs stand apart in the source and are kept apart here.

Experiments:
[1] = Urinary and fecal excretion in mice; type: in vivo, male ICR mice; details: male mice, LC-HRMS, mean ± SD; for dose excreted: ICR, mouse
Protocol: β-amanitin in water was administered by iv bolus injection into the tail vein at 0.8 mg/kg dose (n = 4) and by oral gavage at 10 mg/kg dose (n = 3) to male mice. Mice were returned to metabolic cages, and urine and feces samples were collected individually at 0–6, 6–12, 12–24, 24–36, and 36–48 h. Urine and feces samples were stored at −80 °C until the analysis.
Each tissue and feces sample was homogenized in water (1:3, w/v). In total, 50 μL aliquots of urine, tissue homogenates, or feces homogenates were mixed with 150 μL of 4′-hydroxydiclofenac solution (IS, 5 ng/mL in methanol). The other steps were as described for plasma sample preparation.

[2] = biological target: T1, CYP2C9 (Homo sapiens, UniProt P11712); assay: CYP2C9 inhibition in human liver microsomes; type: in vitro ADME; details: ultrapooled human liver microsomes 0.2 mg/mL, 10 μM diclofenac, β-amanitin 0.1–100 μM, pH 7.4, 37 °C, 15 min, LC-MS/MS, n = 3, read-out: IC50, CYP2C9 diclofenac 4′-hydroxylase
T1 construct: from tissue; host or cells: ultrapooled human liver microsomes
Protocol: (§1) β-amanitin inhibition (IC50 values) of CYP1A2, CYP2A6, CYP2B6, CYP2C8, CYP2C9, CYP2C19, CYP2D6, and CYP3A4 enzyme activities in HLMs were evaluated using LC-MS/MS and CYP substrates as previously described. Each incubation mixture was made up to a volume of 100 μL including HLMs (0.2 mg/mL), 50 mM potassium phosphate buffer (pH 7.4), 1.0 mM NADPH, 10 mM magnesium chloride, various concentrations of β-amanitin (0.1–100 μM), a cocktail of seven CYP probe substrates (50 μM phenacetin for CYP1A2, 2.5 μM coumarin for CYP2A6, 2 μM amodiaquine for CYP2C8, 10 μM diclofenac for CYP2C9, 100 μM [S]-mephenytoin for CYP2C19, 5 μM bufuralol for CYP2D6, and 2.5 μM midazolam for CYP3A4 in acetonitrile), or 50 μM bupropion for CYP2B6. The reactions were initiated with NADPH followed by incubation in a shaking water bath at 37 °C for 15 min with or without 30 min preincubation with NADPH. Reactions were stopped with 50 μL of ice-cold methanol containing ^13C2, ^15N-acetaminophen and d9-1′-hydroxybufuralol (ISs). Incubation mixtures were centrifuged at 13,000× g for 8 min at 4 °C. An aliquot (5 μL) of the supernatant from the reaction mixture was analyzed by the previous LC-MS/MS method.

[3] = biological target: T2, CYP2C19 (Homo sapiens, UniProt P33261); assay: CYP2C19 inhibition in human liver microsomes; type: in vitro ADME; details: ultrapooled human liver microsomes 0.2 mg/mL, 100 μM [S]-mephenytoin, β-amanitin 0.1–100 μM, pH 7.4, 37 °C, 15 min, LC-MS/MS, n = 3, read-out: IC50, CYP2C19 [S]-mephenytoin 4′-hydroxylase
T2 construct: from tissue; host or cells: ultrapooled human liver microsomes
Protocol: as §1

[4] = biological target: T3, CYP2D6 (Homo sapiens, UniProt P10635); assay: CYP2D6 inhibition in human liver microsomes; type: in vitro ADME; details: ultrapooled human liver microsomes 0.2 mg/mL, 5 μM bufuralol, β-amanitin 0.1–100 μM, pH 7.4, 37 °C, 15 min, LC-MS/MS, n = 3, read-out: IC50, CYP2D6 bufuralol 1′-hydroxylase
T3 construct: from tissue; host or cells: ultrapooled human liver microsomes
Protocol: as §1

[5] = biological target: T4, OAT3 (Homo sapiens, UniProt Q8TCC7); assay: OAT3 transport inhibition in HEK293-OAT3 cells; type: in vitro ADME; set-up: host or cells: HEK293 (TransportoCells); details: 0.1 μM probe substrate, HBSS pH 7.4, β-amanitin 0.01–250 μM (methods), n = 3, read-out: IC50, OAT3-mediated [3H]estrone-3-sulfate uptake
T4 sequence (Q8TCC7 1-542): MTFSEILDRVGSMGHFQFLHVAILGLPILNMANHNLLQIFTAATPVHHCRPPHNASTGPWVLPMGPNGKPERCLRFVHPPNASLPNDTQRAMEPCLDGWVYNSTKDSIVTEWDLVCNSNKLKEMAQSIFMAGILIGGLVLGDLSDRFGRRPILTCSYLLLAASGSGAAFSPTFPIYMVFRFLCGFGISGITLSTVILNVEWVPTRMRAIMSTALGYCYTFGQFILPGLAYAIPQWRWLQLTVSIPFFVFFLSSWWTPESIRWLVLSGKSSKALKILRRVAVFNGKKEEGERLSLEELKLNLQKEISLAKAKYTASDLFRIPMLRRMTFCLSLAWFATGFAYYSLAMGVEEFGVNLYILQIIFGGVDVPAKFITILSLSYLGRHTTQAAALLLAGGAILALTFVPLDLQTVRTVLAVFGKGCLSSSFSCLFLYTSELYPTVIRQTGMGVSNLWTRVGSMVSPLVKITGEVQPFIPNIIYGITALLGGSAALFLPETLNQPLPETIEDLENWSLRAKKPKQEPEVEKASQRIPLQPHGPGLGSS
Protocol: β-amanitin inhibition (IC50 values) of OCT1, OCT2, MATE2-K, OAT1, OAT3, Na^+/taurocholate co-transporting polypeptide (NTCP), OATP1B1, OATP1B3, P-glycoprotein (P-gp), and breast-cancer-resistant protein (BCRP) transport activities were assessed in HEK293 cells overexpressing individual transporters (TransportoCells™, Corning), LLC-PK1-P-gp (Corning), or LLC-PK1-BCRP (obtained from Dr. A.H. Schinkel, Netherlands Cancer Institute; Amsterdam, The Netherlands), as previously reported. Each incubation mixture was prepared to a final volume of 100 μL HBSS (pH 7.4) containing 0.1 μM probe substrates ([^3H]methyl-4-phenylpyridinium for OCT1 and OCT2, [^14C]metformin for MATE2-K, [^3H]p-aminohippuric acid for OAT1, [^3H]estrone-3-sulfate for OAT3, OATP1B1 and BCRP, [^3H]taurocholate for NTCP, [^3H]17-β-D-estradiol-glucuronide for OATP1B3, [^3H]digoxin for P-gp) and various concentrations of β-amanitin (0.01–250 μM), as previously described.

[6] = with 30 min NADPH preincubation

T2 sequence (P33261 whole entry): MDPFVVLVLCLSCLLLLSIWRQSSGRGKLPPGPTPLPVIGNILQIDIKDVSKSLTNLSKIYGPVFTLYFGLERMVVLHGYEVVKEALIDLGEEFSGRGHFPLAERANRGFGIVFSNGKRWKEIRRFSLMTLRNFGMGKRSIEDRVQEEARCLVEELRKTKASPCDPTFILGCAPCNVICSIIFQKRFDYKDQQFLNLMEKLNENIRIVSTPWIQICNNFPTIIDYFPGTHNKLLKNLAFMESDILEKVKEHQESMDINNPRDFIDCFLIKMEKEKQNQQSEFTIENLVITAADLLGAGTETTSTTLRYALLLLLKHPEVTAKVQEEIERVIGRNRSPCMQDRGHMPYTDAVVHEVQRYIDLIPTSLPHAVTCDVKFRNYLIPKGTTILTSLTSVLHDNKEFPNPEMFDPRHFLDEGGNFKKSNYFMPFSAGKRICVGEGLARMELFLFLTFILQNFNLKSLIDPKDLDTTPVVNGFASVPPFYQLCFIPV
T3 sequence (P10635 whole entry): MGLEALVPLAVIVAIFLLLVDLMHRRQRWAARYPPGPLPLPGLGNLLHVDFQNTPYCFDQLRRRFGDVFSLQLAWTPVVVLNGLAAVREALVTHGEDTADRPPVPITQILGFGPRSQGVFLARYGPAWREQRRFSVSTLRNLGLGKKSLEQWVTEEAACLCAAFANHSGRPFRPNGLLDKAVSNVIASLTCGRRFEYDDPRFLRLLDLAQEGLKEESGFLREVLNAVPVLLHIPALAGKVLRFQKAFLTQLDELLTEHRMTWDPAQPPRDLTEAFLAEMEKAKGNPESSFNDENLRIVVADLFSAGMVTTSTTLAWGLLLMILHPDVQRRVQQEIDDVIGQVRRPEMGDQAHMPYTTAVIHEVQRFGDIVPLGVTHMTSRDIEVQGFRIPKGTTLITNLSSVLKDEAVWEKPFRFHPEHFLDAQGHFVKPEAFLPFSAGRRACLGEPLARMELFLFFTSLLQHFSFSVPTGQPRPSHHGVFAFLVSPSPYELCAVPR
T1 sequence (P11712 whole entry): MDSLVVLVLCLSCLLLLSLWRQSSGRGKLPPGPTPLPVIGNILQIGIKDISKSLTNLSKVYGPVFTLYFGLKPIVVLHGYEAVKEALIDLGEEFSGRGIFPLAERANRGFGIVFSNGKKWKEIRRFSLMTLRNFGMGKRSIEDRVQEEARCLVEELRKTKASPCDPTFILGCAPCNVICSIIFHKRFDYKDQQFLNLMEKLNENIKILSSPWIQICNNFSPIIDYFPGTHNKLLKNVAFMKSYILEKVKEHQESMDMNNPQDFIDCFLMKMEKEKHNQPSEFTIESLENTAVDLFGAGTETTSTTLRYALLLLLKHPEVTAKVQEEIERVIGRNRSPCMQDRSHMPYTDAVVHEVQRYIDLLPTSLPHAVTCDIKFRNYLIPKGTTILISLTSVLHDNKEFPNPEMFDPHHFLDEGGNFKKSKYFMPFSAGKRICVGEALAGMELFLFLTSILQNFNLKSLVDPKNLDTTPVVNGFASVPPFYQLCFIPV

SMILES: CC[C@H](C)[C@@H]1NC(=O)CNC(=O)[C@@H]2Cc3c([nH]c4cc(O)ccc34)[S@+]([O-])C[C@H](NC(=O)CNC1=O)C(=O)N[C@@H](CC(=O)O)C(=O)N1C[C@H](O)C[C@H]1C(=O)N[C@@H]([C@@H](C)[C@@H](O)CO)C(=O)N2 [β-amanitin]
- dose excreted ([1]; iv bolus 0.8 mg/kg, metabolic cages, urine 0–48 h, n = 4, read-out: Total urinary recovery (parent form) after 48 h): 52.3 ± 19.8%
- dose excreted ([1]; oral gavage 10 mg/kg, feces 0–48 h, n = 3, read-out: Cumulative fecal excretion for 48 h): 72.4 ± 24.7%
- dose excreted ([1]; oral gavage 10 mg/kg, urine 0–48 h, n = 3, read-out: Cumulative urinary excretion for 48 h): 2.4 ± 1.2%
- Total fecal recovery over 48 h ([1]; iv bolus 0.8 mg/kg, feces 0–48 h, n = 4): 7.6% ± 1.2
- Urinary recovery within 6 h ([1]; iv bolus 0.8 mg/kg, urine 0–6 h, n = 4): 40.9% ± 27.6
- IC50 [2, 6]: > 100 µM
- IC50 ([2]; without NADPH preincubation): > 100 µM
- IC50 [3, 6]: > 100 µM
- IC50 ([3]; without NADPH preincubation): > 100 µM
- IC50 [4, 6]: 71.6 µM
- IC50 ([4]; without NADPH preincubation): 76.2 µM
- IC50 [5]: 37.4 µM
